The source of these data is patent publication US20100266501A1, “METHODS AND COMPOSITIONS FOR ORGAN PROTECTION” (University Of Vermont and State Agricltural College, priority 2006, published 2010).

Where two headings read alike, the source gives them in different places.

Data set [1] can be described thus: Intracoronary NAC dose escalation: ECG (QT interval, arrhythmias, heart rate).
Description: Accordingly, the effects of escalating doses of intracoronary NAC (Cumberland Pharmaceuticals, Nashville, Tenn.) mixed with contrast medium on blood pressure and cardiac rhythm were tested in two healthy farm raised pigs (23 and 26 kg).
The pigs were anesthetized with Isoflurane after intramuscular pre-medication with Ketamine (20 mg/kg). After endotracheal intubation they were ventilated (Harvard Apparatus, Holliston, Mass.) with a mixture of oxygen and 1-3 percent isoflurane. A surgical level of anesthesia was confirmed prior to obtaining percutaneous femoral arterial access using a 6-French sheath. A JR 4 or HS guide catheter was inserted and placed at the ostium of the left main coronary artery. Continuous twelve-lead ECG and catheter based pressures were digitally recorded with the administration of bolus injections of NAC. The initial dose was 56.6 mg of NAC diluted in 5 mL of. Iopamidol (Isovue 370®, Bracco Pharmaceuticals, Princeton, N.J.). This dose of 11.3 mg NAC/mL is referred to as the target dose because it would deliver a dose of 1850 milligrams of NAC to an average patient undergoing a percutaneous coronary intervention. […] Following at least five injections of the target dose, a total of four high dose injections were performed, two of 250 mg per 5 mL bolus and two of 500 mg NAC per 5 mL bolus (equal to 4.4× and 8.8× target dose). […] Blood pressure and QT interval were analyzed at the end of three succeeding respiratory cycles (6, 12 and 18 seconds after injection) and are reported as a mean percent change from baseline.
In the dose escalation study the effect of each injection on blood pressure and QT interval was expressed as a percentage change from the immediately preceding baseline and analyzed by a paired student's t-test. A p-value of less than 0.05 was accepted as statistically significant.
Another data set relates to myocyte nuclei. The data set is described as follows: Ischemia-reperfusion model: TUNEL assay for apoptosis in myocardium. Format: in vivo, pig. The following applies: for nuclei stained positive for apoptosis (TUNEL): infarct tissue; for nuclei stained positive for apoptosis (TUNEL) / nuclei stained TUNEL positive: mean±SD; for nuclei stained TUNEL positive: non-infarcted area at risk. From the text: Sedation, anesthesia and instrumentation of the pigs were accomplished in accordance to the dose escalation study. All pigs received a bolus of 2000 units of heparin sulfate after obtaining femoral artery access. A guide wire (PT2, 0.014″×185 cm, Boston Scientific, Natick, Mass.) was then advanced into the left anterior descending (LAD) coronary artery followed by inflation of a balloon (Monorail Maverick, 2.5×15 mm, Boston Scientific) in its mid-portion, just distal to the second diagonal branch. Total occlusion was confirmed by contrast injections after increasing balloon pressures in 1 atm increments. Total occlusion time was 60 minutes. Throughout the experiment, the animals were monitored by continuous digital ECG recordings and guide catheter pressure recordings. Digital cineangiograpic recordings were obtained in straight anterioposterior projections. TUNEL assays were performed on samples from […] area at risk and infarcted tissue to investigate if NAC reduces ischemia-reperfusion induced apoptosis. A total of four samples from two control animals and six samples from three NAC treated animals were analyzed. Tissue sections were deparaffinized and permeabilized with proteinase K (25 μg/ml in 100 mM Tris.HCl). An in situ apoptotic cell death detection kit (TMR red; Roche Applied Bio Sciences, Indianapolis, Ind.) based on the TUNEL assay was used to detect apoptotic cells. Sections were mounted with Vectashield mounting medium containing 4′,6-diamidino-2-phenylindole (DAPI; Vector Laboratories, Burlingame, Calif.) as a nuclear counterstain. Sections were examined with a Zeiss Axiovert 200 microscope and Zeiss LSM 510 META laser scanning confocal microscope. The percentage of apoptotic nuclei per section was calculated by counting the total number of TUNEL-staining nuclei divided by the total number of DAPI-positive nuclei in 10 randomly selected fields at ×40 magnification (14).

The subject of data set [2] is pig model of myocardial ischemia and reperfusion. Kind of data set: Ischemia-reperfusion model: area at risk and infarct size (Evans Blue / TTC staining). Format: in vivo. The following applies: for area at risk as a percentage of ventricular myocardium / infarct size as a percentage of the area at risk / infarct size as percent of ventricular myocardium (TTC staining): 60 min LAD occlusion, 24 h reperfusion, 200 ml contrast, NAC 11.3 mg/mL, n=5, mean±SD. From the text:
Sedation, anesthesia and instrumentation of the pigs were accomplished in accordance to the dose escalation study. All pigs received a bolus of 2000 units of heparin sulfate after obtaining femoral artery access. A guide wire (PT2, 0.014″×185 cm, Boston Scientific, Natick, Mass.) was then advanced into the left anterior descending (LAD) coronary artery followed by inflation of a balloon (Monorail Maverick, 2.5×15 mm, Boston Scientific) in its mid-portion, just distal to the second diagonal branch. Total occlusion was confirmed by contrast injections after increasing balloon pressures in 1 atm increments. Total occlusion time was 60 minutes. Throughout the experiment, the animals were monitored by continuous digital ECG recordings and guide catheter pressure recordings. Digital cineangiograpic recordings were obtained in straight anterioposterior projections. A total of 200 ml of contrast medium was administered to each animal. Approximately half of the contrast volume was used during diagnostic angiography and insertion of the guidewire into the LAD. The remaining contrast was injected after deflation of the balloon during the reperfusion period. After 20-30 minutes of reperfusion, catheter, balloon and guide wire were withdrawn. An Angio-Seal 6-French femoral artery closure device (St. Jude Medical, St. Paul, Minn.) was deployed and the Isoflurane was discontinued. After 30 minutes the ECG recording was stopped and the animals were extubated and transferred to the animal housing facility. No animal was lost during the housing period. Twenty four hours later the animals were sedated and intubated. The thoracic cavity was opened by a midline sternotomy and ligatures were placed at the site of the proximal balloon occlusion, the aortic arch branches and the descending aorta. The right carotid artery was cannulated and a plastic catheter advanced into the aortic root. […] The vessels were occluded in the following order: LAD, aortic arch branches and descending aorta. The dye was then injected at a perfusion pressure of 120 mmHg until the myocardium was stained. […] In the NAC group two animals could not be used for the myocardial infarction analysis (insufficient Evans Blue staining, unsuccessful electrical cardioversion). Evans Blue stained hearts were harvested and the atria were removed. The ventricles were sliced into one centimeter slices in a bread loaf fashion, with the first slice at the apex. At least five slices could be obtained in all hearts. The basal surfaces of the slices were sequentially imaged. Small samples of myocardium from areas of necrosis, area at risk and normal left ventricular myocardium were obtained from the apical side of the second and third slice and stored for additional analyses. […] The basal surfaces were then re-imaged. Area analysis (planimetry) was performed with the NIH-Image program (Scion Image Version 4.0.2). The size of the area at risk and infarct size for each slice was determined by multiplying the mass of the slice by the fraction of area at risk or by the fraction of area of infarction. Total infarct size and the area at risk size were expressed as a percentage of biventricular mass to account for the anterior right ventricular infarction.

The test system is the same in data set [3]. The data set is described as follows: Ischemia-reperfusion model: infarct morphology (circumference/area index). Format: in vivo. The note with it: for morphologic appearance of the infarcted area: TTC stained sections. From the text: (§1) Sedation, anesthesia and instrumentation of the pigs were accomplished in accordance to the dose escalation study. All pigs received a bolus of 2000 units of heparin sulfate after obtaining femoral artery access. A guide wire (PT2, 0.014″×185 cm, Boston Scientific, Natick, Mass.) was then advanced into the left anterior descending (LAD) coronary artery followed by inflation of a balloon (Monorail Maverick, 2.5×15 mm, Boston Scientific) in its mid-portion, just distal to the second diagonal branch. Total occlusion was confirmed by contrast injections after increasing balloon pressures in 1 atm increments. Total occlusion time was 60 minutes. Throughout the experiment, the animals were monitored by continuous digital ECG recordings and guide catheter pressure recordings. Digital cineangiograpic recordings were obtained in straight anterioposterior projections. In order to quantify visual differences in infarct morphology, a circumference/area index of the infarcted myocardium using TTC stained sections was calculated.

The nature of data set [4]: Ischemia-reperfusion model: serum creatinine. The following applies: for baseline creatinine level / creatinine level: serum, mean±SD; for baseline creatinine level: prior to contrast medium administration; for creatinine level: twenty four hours after ischemia-reperfusion, 200 ml contrast. The class given is in vivo, pig. From the text: Sedation, anesthesia and instrumentation of the pigs were accomplished in accordance to the dose escalation study. All pigs received a bolus of 2000 units of heparin sulfate after obtaining femoral artery access. A guide wire (PT2, 0.014″×185 cm, Boston Scientific, Natick, Mass.) was then advanced into the left anterior descending (LAD) coronary artery followed by inflation of a balloon (Monorail Maverick, 2.5×15 mm, Boston Scientific) in its mid-portion, just distal to the second diagonal branch. Total occlusion was confirmed by contrast injections after increasing balloon pressures in 1 atm increments. […] Throughout the experiment, the animals were monitored by continuous digital ECG recordings and guide catheter pressure recordings. Digital cineangiograpic recordings were obtained in straight anterioposterior projections. A total of 200 ml of contrast medium was administered to each animal. Approximately half of the contrast volume was used during diagnostic angiography and insertion of the guidewire into the LAD. The remaining contrast was injected after deflation of the balloon during the reperfusion period. After 20-30 minutes of reperfusion, catheter, balloon and guide wire were withdrawn. An Angio-Seal 6-French femoral artery closure device (St. Jude Medical, St. Paul, Minn.) was deployed and the Isoflurane was discontinued. After 30 minutes the ECG recording was stopped and the animals were extubated and transferred to the animal housing facility. No animal was lost during the housing period. Serum was collected prior to contrast exposure and 24 hours after infarction and analyzed for creatinine. An attempt was also made to assay Cystatin C as a second renal marker. However, Cystatin C was undetectable in pig serum.

Data set [5] has as its system pig model of myocardial ischemia and reperfusion. The data set is described as follows: Ischemia-reperfusion model: periprocedural arrhythmias (VT, VF, DCCV). The class given is in vivo. The note with it: 200 ml contrast, NAC 11.3 mg/mL.
Excerpt: as §1, with “projections.” for “projections. In order to quantify visual differences in infarct morphology, a circumference/area index of the infarcted myocardium using TTC stained sections was calculated.”
Blood pressure, heart rate, and high-resolution ECG were continuously recorded beginning at the time of coronary occlusion and for 30 minutes following reperfusion. The occurrence of ventricular tachycardia during coronary occlusion or reperfusion (defined as more than 4 consecutive ventricular ectopic beats) and ventricular fibrillation were recorded. […] (DCCV) was provided for ventricular fibrillation and ventricular tachycardia with hemodynamic instability. No antiarrhythmic medications were used.

The mark [6] stands for this setting: 250 mg NAC per 5 mL bolus, six seconds.
[7] abbreviates: 500 mg NAC per 5 mL bolus, six seconds.
Setting [8] is: 5 ml contrast with target dose NAC 11.3 mg/mL, 6 seconds after injection.
Where [9] appears, read: target dose NAC 11.3 mg/mL, 18 seconds after injection.

Consider `CC(=O)N[C@@H](CS)C(=O)O` [NAC, N-acetylcysteine], for which the QT interval prolongation entry in data set [1] (250 mg NAC bolus, 18 seconds) was “normalized”. In data set [1] (250 mg NAC bolus, immediately after injection), this compound came in with a QT interval prolongation of 16%. Further, the “time to complete recovery of QT interval to baseline” value in data set [1] (500 mg NAC bolus) fell in the range of 45 to 60 s. Besides, in data set [1] (500 mg NAC bolus, 18 seconds), the QT interval prolongation is recorded as 9%. This compound registered a QT interval prolongation in data set [1] (500 mg NAC bolus, immediately after injection) of 35%. Moreover, in data set [1] (healthy pigs, intracoronary bolus injections), the “arrhythmias or changes in heart rate after injections of contrast containing NAC” value is given as “did not cause any arrhythmias or changes in heart rate”. Moreover, in data set [1] (target dose 11.3 mg/mL, eighteen seconds after injection), the QT interval prolongation entry is reported as “significant QT prolongation was no longer present”. The compound further showed a QT interval prolongation in data set [1] (target dose 11.3 mg/mL, six seconds after injection) of 10%. Further, in the data set with myocyte nuclei, the “nuclei stained positive for apoptosis (TUNEL)” value was found to be 33.0±3.7% and the “nuclei stained TUNEL positive” value was determined as 1.6±1.6%. The “TUNEL positive myocyte nuclei” value in the data set with myocyte nuclei (non-ischemic myocardium (non-LAD territories), NAC treated vs control) is “without a significant difference”. In data set [2], the “area at risk as a percentage of ventricular myocardium” value came out at 18.4±1.8%, the “infarct size as a percentage of the area at risk” value stood at 44.7±12.4% and the “infarct size as percent of ventricular myocardium (TTC staining)” value was found to be 8.2±2.3%. In addition, the “reduction in infarct size” value in data set [2] (NAC-contrast vs contrast-only) is “approximately 50%”. Further, the “morphologic appearance of the infarcted area” value in data set [3] is listed as “mottled appearance”. In addition, the “ratio of infarct circumference to infarct area” value in data set [3] (compared with control animals) is listed as “greater”. The “reduction of the rise in post procedure creatinine levels” value in data set [4] (NAC provided during contrast administration vs contrast-only) is on record as “about 60%”. In data set [4], this compound registered a baseline creatinine level of 1.29 ± 0.15 mg/dL and a creatinine level of 1.49 ± 0.06 mg/dL. Moreover, under setting [6], the “reduction of diastolic blood pressure” value was 26% and the “reduction of systolic blood pressure” value was 14%. Besides, where the note is “250 mg and 500 mg bolus”, the “time to recovery of diastolic pressures” value fell in the range of 45 to 60 s. Besides, the systolic blood pressure entry (250 mg and 500 mg bolus, after 18 seconds) is given as “normalized”. In addition, under setting [7], the “reduction of diastolic blood pressure” value is 43% and the “reduction of systolic blood pressure” value was found to be 48%. Moreover, under setting [8], the “reduction in diastolic blood pressure” value was determined as 17% and the “reduction of systolic blood pressure” value is recorded as 5%. In addition, the “time to complete normalization of blood pressure” value (target dose NAC 11.3 mg/mL) lay in the range of 45 to 60 s. Further, under setting [9], the “decrease in diastolic pressure” value is “about 7%” and the systolic pressure result is “returned to pre-injection pressures”. For the same compound, in data set [5], the “ventricular arrhythmias during ischemia-reperfusion” value is “developed ventricular tachycardia, fibrillation or both”.
On to `C[C@H](O)C(=O)Nc1c(I)c(C(=O)NC(CO)CO)c(I)c(C(=O)NC(CO)CO)c1I` [Iopamidol], for which the QT changes result in data set [1] (contrast injections without NAC) is on record as “No significant QT changes”. For the same compound, in the data set with myocyte nuclei, the “nuclei stained positive for apoptosis (TUNEL)” value was 35.8±5.7% and the “nuclei stained TUNEL positive” value is 32.1±4.0%. In addition, in data set [2], the “area at risk as a percentage of ventricular myocardium” value is recorded as 15.1±4.8%, the “infarct size as a percentage of the area at risk” value is 92.4±6.3% and the “infarct size as percent of ventricular myocardium (TTC staining)” value was determined as 13.9±4.5%. Moreover, the “morphologic appearance of the infarcted area” value in data set [3] is on record as “homogeneous with discrete borders”. Moreover, the “increase in creatinine levels” value in data set [4] (200 ml of contrast without periprocedural hydration, 24 h) was determined as 37%. In data set [4], the baseline creatinine level turned out to be 1.32 ± 0.26 mg/dL and the creatinine level is 1.82 ± 0.24 mg/dL. Also, the “blood pressure effects of control injections” value (contrast only, intracoronary injection) is “did not show such effects”. The “ventricular arrhythmias during ischemia-reperfusion” value in data set [5] is on record as “none of the control ischemia-reperfusion animals developed ventricular fibrillation or required DCCV”.
